The values below come from ChEMBL document CHEMBL3430912, “GSK Tres Cantos Anti-Kinetoplastid Screening (TCAKS) Data”.

Data set [1] concerns Trypanosoma cruzi. Nature of the data set: GSK_TCAKS: pIC50 Trypanosoma cruzi viability assay using beta-GAL activity. This assay was run at single shot at 5uM compound concentration per well. The biological reagents consisted of NIH-3T3 host cells and trypomastigotes parasitic cells; both cell types were set to a 3.3 * 10^5 cells/mL dilution in assay DMEM by means of a CASY cell counter device using a 60um capillary. 6 uL of the mixture were dispensed per well (about 1 * 10^3 host-cells and 1 * 10^3 parasites) with a Multidrop Combi dispenser. […] In all wells, the percentage of DMSO never exceeded 0.5%. Plates incubated for four days at 37C, 5% CO2. The substrate used for the assay fluorescence intensity (FLINT) readout was resorufin-beta-D-galactopiranoside (Sigma-Aldrich) at 5uM per well. It was diluted in PBS supplemented with the soft detergent Igepal (Fluka). Particulars: Tulahuen, NIH3T3. Format: functional, organism-based, Mus musculus.

For data set [2], the system named is Trypanosoma cruzi. Nature of the data set: (§1) GSK_TCAKS: pIC50 Trypanosoma cruzi Imaging: Infected Cells. […] Cells were then washed once with PBS before infection. T. cruzi trypomastigotes, collected at days 5 to 8 after infection from LLC-MK2 parasite infected cultures, were allowed to swim out for 4h at 37C from a centrifuged pellet (2,500 rpm/10 min/room temperature). Trypomastigotes were then collected and counted in a CASY Cell Counter. Trypomastigotes, in supplemented DMEM, were added to H9c2 cultures in a multiplicity of infection of 1 and incubated for 18 h. Cells were washed once with PBS before incubation of the infected H9c2 monolayer with trypsin (Life-Technologies) to detach cells from the flask. Cells were counted in a CASY Cell Counter using a 150 um capillary and their density set at 5 * 10^4 cells per mL in supplemented assay DMEM. Infected H9c2 were dispensed into 384-well poly-lysine coated assay plates at 50uL per well using a Multidrop Combi dispenser. After seeding them, the plates were incubated at 37C, 5% CO2 for 72h. Cultures were then fixed and stained by addition of 50 uL of a solution containing 8% formaldehyde and 4 uM DRAQ5 DNA dye (BioStatus, UK) per well. […] Five images were collected per well for reliable statistical analysis. Automated image analysis was performed with a script developed on Acapella High Content Imaging and Analysis Software (PerkinElmer). Output: percentage of infected cells per well as a second infection marker. Format: functional, organism-based, Rattus norvegicus. As to conditions: H9c2, 4 h.

Data set [3] has as its system Trypanosoma cruzi. Nature of the data set: GSK_TCAKS: pIC50 Trypanosoma cruzi Imaging: Amastigotes/Cell. […] Cells were then washed once with PBS before infection. T. cruzi trypomastigotes, collected at days 5 to 8 after infection from LLC-MK2 parasite infected cultures, were allowed to swim out for 4h at 37C from a centrifuged pellet (2,500 rpm/10 min/room temperature). Trypomastigotes were then collected and counted in a CASY Cell Counter. Trypomastigotes, in supplemented DMEM, were added to H9c2 cultures in a multiplicity of infection of 1 and incubated for 18 h. Cells were washed once with PBS before incubation of the infected H9c2 monolayer with trypsin (Life-Technologies) to detach cells from the flask. Cells were counted in a CASY Cell Counter using a 150 um capillary and their density set at 5 * 10^4 cells per mL in supplemented assay DMEM. Infected H9c2 were dispensed into 384-well poly-lysine coated assay plates at 50uL per well using a Multidrop Combi dispenser. After seeding them, the plates were incubated at 37C, 5% CO2 for 72h. Cultures were then fixed and stained by addition of 50 uL of a solution containing 8% formaldehyde and 4 uM DRAQ5 DNA dye (BioStatus, UK) per well. […] Five images were collected per well for reliable statistical analysis. Automated image analysis was performed with a script developed on Acapella High Content Imaging and Analysis Software (PerkinElmer). Output: number of amastigotes per cell as infection level measurement. The data set is classed as functional, organism-based, Rattus norvegicus. As to conditions: H9c2, 4 h.

Data set [4] relates to Trypanosoma cruzi. The data set is described as §1, with “H2C9” for “Trypanosoma cruzi”, “H9c2 Host Cardiomyocytes.” for “Infected Cells.”, “Number” for “percentage”, “H9c2 Host Cardiomyocytes nuclei to determine drug-related cytotoxicity.” for “infected cells per well as a second infection marker.”. Format: functional, organism-based, Rattus norvegicus. Particulars: H9c2, 4 h.

Data set [5] deals with Leishmania donovani. The experiment in a line: GSK_TCAKS: pIC50 Leishmania donovani viability assay using fluorescence intensity. Assay plates (1536-well) were prepared by adding 30nL per well of compound. For single shot assay, the final compound concentration was 5uM. […] Briefly, eGFP LdBOB axenic amastigotes were harvested, fixed and counted in a CASY cell counter (Roche-Applied Science). A final concentration of 1.5 * 10^5 cells per well were prepared in amastigote media containing 500 U/mL penicillin/streptomycin (Invitrogen) and 6uL was dispensed to each experimental well using a Multidrop Combi dispenser (Thermo Scientific). 6uL of assay media was dispensed to control columns used as reference for 100% compound response. Following incubation for 72 h at 37C, 5% CO2, 2 uL of resazurin was added to each well at a final concentration of 0.5 mM in phosphate buffered saline (PBS) with IGEPAL (Sigma-Aldrich), 0.05% (v/v). The data set is classed as functional, organism-based.

The subject of data set [6] is Leishmania donovani. The experiment in a line: GSK_TCAKS: pIC50 Leishmania donovani Imaging: Infected Macrophages. Assay plates (384-well) were prepared by adding 250nL of compound to each well. For single shot assay, the final compound concentration was 5 uM. […] Automated image analysis was performed with a script developed on Acapella High Content Imaging and Analysis Software (PerkinElmer). Output: Percent of infected macrophage cells were reported for each well. As to conditions: THP-1. The data set is classed as functional, organism-based, Homo sapiens.

The subject of data set [7] is Leishmania donovani. Nature of the data set: GSK_TCAKS: pIC50 Leishmania donovani Imaging: Amastigotes/Macrophages. Assay plates (384-well) were prepared by adding 250nL of compound to each well. For single shot assay, the final compound concentration was 5 uM. […] Automated image analysis was performed with a script developed on Acapella High Content Imaging and Analysis Software (PerkinElmer). Output: Average number of amastigotes per macrophage cell were reported for each well. Format: functional, organism-based, Homo sapiens. As to conditions: THP-1.

In data set [8] the test system is Leishmania donovani. The experiment in a line: GSK_TCAKS: pIC50 Leishmania donovani Imaging: THP-1 Host Macrophages. Assay plates (384-well) were prepared by adding 250nL of compound to each well. For single shot assay, the final compound concentration was 5 uM. […] Automated image analysis was performed with a script developed on Acapella High Content Imaging and Analysis Software (PerkinElmer). Output: THP-1 cell count were reported for each well. Format: functional, organism-based, Homo sapiens.

The test system of data set [9] is Trypanosoma brucei brucei. Nature of the data set: GSK_TCAKS: pIC50 Trypanosoma brucei viability assay using fluorescence intensity. Assay plates (1536-well) were prepared by dispensing 25nL of compound solution per well using an Echo acoustic dispenser (Labcyte). The data set is classed as functional, organism-based. Particulars: Lister 427, 2 h.
In data set [10] the test system is Trypanosoma brucei brucei. Nature of the data set: GSK_TCAKS: pIC50 Trypanosoma brucei viability assay using luminiscence. Assay plates (1536-well) were prepared. T. brucei cultures were harvested and counted in a CASY cell counter. A parasite suspension was prepared at a final concentration of 5 * 10^4 cells/mL in complete HMI9 medium and 6uL was dispensed to all wells containing compounds using a Multidrop Combi dispenser. 6uL of HMI9 media with 0.4% DMSO were dispensed to control columns. Plates were incubated for 24 h at 37C, 5% CO2 then tempered for 10 min at room temperature. ATP content was quantified by adding 4 uL of CellTiter-Glo Reagent (Promega) according to the manufacturer's instructions. Luminescence was measured using a ViewLux. Format: functional, organism-based. Particulars: Lister 427, CASY.

The nature of data set [11]: GSK_TCAKS: pIC50 HepG2 human cell line viability assay using luminiscence. […] Seeding density was checked to ensure that new mono-layers were not more than 50% confluent at the time of harvesting. Cell suspension was added to 500 mL of the same medium at a final density of 1.2 * 10^5 cells/mL. This cell suspension was dispensed (25 uL, 3000 cells per well) into 384-well clear-bottom plates using a Multidrop Combi dispenser. Prior to addition of the cell suspension, the screening compounds (250 nL) were pre-dispensed into the plates with an Echo liquid handler. Plates were incubated for 48 h at 37C, 5% CO2. After incubation, plates equilibrated at room temperature for 30 min before proceeding to develop the luminescent signal. The signal developer, CellTiter-Glo Reagent, was allowed to equilibrate at room temperature for 30 min and added to the plates (25uL per well) using a Multidrop Combi dispenser. Plates were left for 10 min at room temperature for stabilization and then read using a ViewLux. Format: toxicity, cell-based.

The next data set concerns NIH3T3. Nature of the data set: GSK_TCAKS: pIC50 NIH 3T3 cell line viability assay using luminiscence. Tissue culture surface treated assay plates (1536-well) were used. […] The 100% cells survival control was determined exposing the host-cells to a 0.5% DMSO concentration, whereas the 100% toxicity control was achieved by seeding the cells in presence of Amphotericin B at 50uM. Plates were incubated for four days at 37C, 5% CO2. The assay readout was developed by addition of 5uL of CellTiter-Glo Reagent following the manufacturer's instructions. Luminiscence was measured using a ViewLux. Format: functional, cell-based. Particulars: Mus musculus, NIH3T3, 96 h.

In data set [12] the target is Sterol 14-alpha demethylase (Trypanosoma cruzi (strain CL Brener), UniProt Q7Z1V1). The experiment in a line: GSK_TCAKS: pIC50 CYP51 from Trypanosoma cruzi. The data set is classed as functional.
Sequence of Sterol 14-alpha demethylase (Q7Z1V1 whole entry): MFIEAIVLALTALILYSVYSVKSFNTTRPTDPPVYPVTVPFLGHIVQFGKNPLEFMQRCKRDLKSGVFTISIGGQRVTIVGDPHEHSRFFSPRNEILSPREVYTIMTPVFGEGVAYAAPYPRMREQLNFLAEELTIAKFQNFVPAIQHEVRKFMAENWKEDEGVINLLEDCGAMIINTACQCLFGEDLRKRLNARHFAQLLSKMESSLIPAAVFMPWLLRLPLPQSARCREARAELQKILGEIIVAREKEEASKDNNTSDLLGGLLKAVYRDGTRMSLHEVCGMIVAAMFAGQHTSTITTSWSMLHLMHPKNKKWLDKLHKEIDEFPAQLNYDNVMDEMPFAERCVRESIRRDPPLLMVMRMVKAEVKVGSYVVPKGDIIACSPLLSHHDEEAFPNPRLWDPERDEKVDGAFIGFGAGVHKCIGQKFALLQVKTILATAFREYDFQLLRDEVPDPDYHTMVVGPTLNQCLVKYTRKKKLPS

In the case of `O=C(NCCc1ccccc1Cl)c1cccn1-c1cccnc1`, the IC50 in the data set with Trypanosoma cruzi [1] was 0.398 µM; in the data set on Trypanosoma cruzi [2], 0.501 µM; in the data set on Trypanosoma cruzi [3], 0.501 µM; in the data set on Trypanosoma cruzi [4], greater than 50.1 µM; in the data set with Leishmania donovani [5], 6.31 µM; in the data set with Leishmania donovani [6], greater than 50.1 µM. Moreover, the IC50 with Leishmania donovani [7] is greater than 50.1 µM; in the data set with Leishmania donovani [8] it was greater than 50.1 µM; in data set [9] it was 31.6 µM; in data set [10] it was greater than 39.8 µM; in the data set on NIH3T3, 31.6 µM; in data set [12], 0.0794 µM. The IC50 at 48 h in [11] was greater than 100 µM.

As to `COc1ccc(S(=O)(=O)Nc2ccccc2OC)cc1NC(=O)CCCc1c[nH]c2ccccc12`, the IC50 with Trypanosoma cruzi [1] was 1.58 µM; in the data set with Trypanosoma cruzi [2], 1.26 µM; in the data set with Trypanosoma cruzi [3], 1 µM; in the data set on Trypanosoma cruzi [4] it was greater than 50.1 µM; in the data set on Leishmania donovani [5], 25.1 µM; with Leishmania donovani [6], greater than 50.1 µM. The IC50 with Leishmania donovani [7] was greater than 50.1 µM; in the data set with Leishmania donovani [8], greater than 50.1 µM; in data set [9], 12.6 µM; in [10], 31.6 µM; in the data set with NIH3T3 it was greater than 50.1 µM; in data set [12], greater than 100 µM. This compound also had an IC50 at 48 h in data set [11] greater than 100 µM.

Turning to `Cc1nn(C2CCS(=O)(=O)C2)c(C)c1CN(C)C(=O)C=Cc1sc2ccccc2c1Cl` (stereo not given), the IC50 with Trypanosoma cruzi [1] was 0.631 µM; in the data set with Trypanosoma cruzi [2] it was 0.501 µM; with Trypanosoma cruzi [3], 0.316 µM; in the data set with Trypanosoma cruzi [4], greater than 50.1 µM; in the data set on Leishmania donovani [5], 12.6 µM; in the data set with Leishmania donovani [6] it was 39.8 µM. Also, the IC50 with Leishmania donovani [7] is 12.6 µM; with Leishmania donovani [8], 20 µM; in [9], 10 µM; in data set [10] it was 25.1 µM; in the data set with NIH3T3 it was greater than 50.1 µM; in data set [12], 0.0316 µM. The same compound showed an IC50 at 48 h in data set [11] greater than 100 µM.

Consider `COc1ccc2c(Cl)c(C(=O)N3CCC3)sc2c1Cl`, for which the IC50 is 0.447 µM in the data set with Trypanosoma cruzi [1]; 2.51 µM in the data set on Trypanosoma cruzi [2]; 0.794 µM in the data set on Trypanosoma cruzi [3]; greater than 50.1 µM in the data set on Trypanosoma cruzi [4]; greater than 50.1 µM with Leishmania donovani [5]; greater than 50.1 µM with Leishmania donovani [6]. In addition, the IC50 with Leishmania donovani [7] is greater than 50.1 µM; with Leishmania donovani [8], greater than 50.1 µM; in data set [9], 20 µM; in [10], greater than 39.8 µM; in the data set on NIH3T3 it was greater than 50.1 µM; in data set [12], greater than 100 µM. Besides, the IC50 at 48 h in data set [11] is greater than 100 µM.

For the compound `Cc1cc(C)nc(N2CCC(N(Cc3cccnc3)C(=O)c3cccc(C#N)c3)CC2)n1`, the IC50 is 0.316 µM with Trypanosoma cruzi [1]; 0.316 µM with Trypanosoma cruzi [2]; 0.398 µM in the data set on Trypanosoma cruzi [3]; greater than 50.1 µM in the data set on Trypanosoma cruzi [4]; 5.01 µM with Leishmania donovani [5]; greater than 50.1 µM with Leishmania donovani [6]. Moreover, the IC50 with Leishmania donovani [7] is greater than 50.1 µM; in the data set on Leishmania donovani [8], greater than 50.1 µM; in [9], greater than 39.8 µM; in [10] it was greater than 39.8 µM; in the data set with NIH3T3 it was 7.94 µM; in [12] it was 0.126 µM. The same compound had an IC50 at 48 h in data set [11] greater than 100 µM.
